Data on 10 compounds can be found in PubChem BioAssay (NCI).

Common to all, as to assay: NCI anticancer screen, dose series, 48 h
Assay [1] has as its system UO-31 renal.
Assay [2] deals with NCI/ADR-RES ovarian.
The test system of assay [3] is SK-OV-3 ovarian.
The test system of assay [4] is OVCAR-3 ovarian.
In assay [5] the test system is UACC-62 melanoma.
Assay [6] deals with SK-MEL-28 melanoma.
The subject of assay [7] is ACHN renal.
Assay [8] deals with MDA-MB-435.
Assay [9] has as its system U251 CNS.
In assay [10] the test system is OVCAR-5 ovarian.

Where “and” joins values, the source holds several entries; their conditions need not be identical. Identical values can stand only once.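 Protocol summary: plate cells (96-well), add compound at 5 concentrations, incubate 48 h, interpolate endpoints linearly. GI50 marks 50% less growth. TGI denotes the concentration required for complete inhibition of growth.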

Take `CC(C)(C)[Si](C)(C)OCC1OC(n2cnc3c(N)ncnc32)C(O)C1O` (stereo not drawn): the TGI in assay [1], in assay [2], in [3], in assay [4], in assay [5] and in assay [6] was greater than 100 µM throughout. Further, the TGI in assay [7], in assay [8], in assay [9] and in [10] was greater than 100 µM throughout.
For the compound `NC(=O)c1cc(I)ccc1NC(=O)COc1ccccc1`, the GI50 was 4.27 µM in [1]; 0.329 µM in assay [2]; 3.21 µM in assay [3]; 336 nM in assay [4]; 0.814 µM in assay [5]; 2.57 µM in [6]. Besides, the GI50 in [7] was 1.5 µM; in assay [8], 0.107 µM; in assay [9] it was 0.365 µM; in assay [10] it was 2.24 µM. Also, the TGI was greater than 100 µM in assay [1]; 5.43 µM in [2]; greater than 69.1 µM in [3]; 1.35 µM in assay [4]; greater than 100 µM in [5]; greater than 100 µM in [6]. Besides, the TGI in assay [7] is greater than 100 µM; in assay [8], 0.359 µM; in [9], 10.8 µM; in assay [10] it was greater than 100 µM.
For the compound `CC1(C)C2CCC13C(=O)C1OC3(C2)C2C(=O)c3c(O)cccc3C(=O)C12` (stereo not drawn), the GI50 was 4.5 µM in assay [1]; 2.1 µM in assay [2]; 10.9 µM in [3]; 180 nM in assay [4]; 0.2 µM in assay [5]; 3.58 µM in assay [6]. For the same compound, the GI50 in assay [7] was 1.56 µM; in assay [8], 0.818 µM; in assay [9], 0.64 µM; in assay [10] it was 4.25 µM. The TGI in [1] is 18.5 µM; in assay [2], 6.01 µM; in [3], 23.9 µM; in assay [4], 0.648 µM; in assay [5] it was 0.403 µM; in assay [6] it was 21.1 µM. For the same compound, the TGI was 2.98 µM in [7], 2.5 µM in assay [8], 1.81 µM in [9] and 13.7 µM in [10].
As to `O=C(O)Cn1ccnc1[N+](=O)[O-]`, the TGI in assay [1], in [2], in assay [3], in assay [4], in assay [5] and in assay [6] was greater than 100 µM throughout. The TGI in assay [7], in assay [8], in [9] and in assay [10] was greater than 100 µM in each case.
For `COc1cc2cc(Oc3ccc(NC(=O)c4cccc5c4OCCO5)cc3)c(C)nc2cc1OC`, the GI50 is 4.17 µM in assay [1]; 3.42 µM in assay [2]; 49.8 µM in [3]; 17100 nM in [4]; 6.24 µM in assay [5]; 19.2 µM in [6]. Also, the GI50 in assay [7] is 4.01 µM; in assay [8], 7.05 µM; in assay [9], 5.03 µM; in [10] it was 10.8 µM. Also, the TGI in assay [1], in assay [2], in assay [3], in assay [4], in assay [5] and in assay [6] was greater than 100 µM each time. Further, the TGI is 27.3 µM in [7], greater than 100 µM in assay [8], greater than 100 µM in assay [9] and greater than 100 µM in [10].
As for `O=C(Nc1ccccc1O)c1ccc(CNC(=O)c2ccsc2Nc2ccnc(C(F)(F)F)c2)cc1`, the GI50 in assay [1] was 1.32 µM; in [2] it was 2.23 µM; in assay [3], 5.59 µM; in [4] it was 1850 nM; in assay [5], 1.43 µM; in assay [6] it was 2.15 µM. For the same compound, the GI50 in assay [7] was 2.6 µM; in assay [8], 2.19 µM; in assay [9], 1.65 µM; in [10], 2.05 µM. The TGI was determined as 4.34 µM in assay [1]; 8.52 µM in assay [2]; 45.6 µM in [3]; 4.8 µM in [4]; 4.83 µM in assay [5]; 6.79 µM in assay [6]. The TGI came to 10.3 µM in assay [7], 6.54 µM in assay [8], 5.07 µM in assay [9] and 14.7 µM in assay [10].
On to `CCCn1cnc2c(SCc3ccccc3)nc(N)nc21`, for which the GI50 in assay [1] is 67.7 µM; in [2] it was 63.2 µM; in [3] it was greater than 100 µM; in assay [4], greater than 100000 nM; in assay [5], greater than 100 µM; in assay [6], greater than 100 µM. Moreover, the GI50 in assay [7] is greater than 100 µM; in assay [8] it was greater than 100 µM; in assay [9] it was 41.4 µM; in [10] it was greater than 100 µM. Further, the TGI in assay [1], in assay [2], in assay [3], in assay [4], in assay [5] and in assay [6] was greater than 100 µM throughout. In addition, the TGI in assay [7], in [8], in assay [9] and in assay [10] was greater than 100 µM in each case.
For the compound `CC[C@H](C)[C@H](NC(=O)[C@H]1CCCCN1C)C(=O)N(C)[C@H](C[C@@H](OC(C)=O)c1nc(C(=O)N[C@@H](Cc2ccccc2)C[C@H](C)C(=O)OC)cs1)C(C)C`, the GI50 was 0.0032 µM and 0.0025 µM in assay [1]; 0.00772 µM in assay [2]; 0.000264 µM and 0.0025 µM in [3]; 0.0424 nM in assay [4]; greater than 25 µM in assay [6]; 0.000773 µM and 0.0025 µM in assay [7]. Moreover, the GI50 in [8] was less than 0.0025 µM; in assay [9], 0.000376 µM and 0.0025 µM; in assay [10], 0.000583 µM and 0.0025 µM. Also, the TGI in assay [1] is greater than 25 µM; in assay [3], greater than 25 µM; in assay [4] it was 0.0116 µM; in assay [5], greater than 25 µM; in [6], greater than 25 µM; in assay [7] it was greater than 25 µM. The figures for the TGI in assay [8], in assay [9] and in [10] were less than 0.0025 µM, greater than 25 µM and greater than 25 µM, respectively.
`COc1ccc(-c2cc(/C=C/C(=O)c3cc(OC)c(OC)c(OC)c3)[nH]n2)cc1OC`: the GI50 in assay [1] is 1.27 µM; in assay [2], 2.69 µM; in assay [3], 5.47 µM; in assay [4], 1590 nM; in assay [5], 1.79 µM; in [6], 1.92 µM. Besides, the GI50 was 1.45 µM in [7], 1.78 µM in assay [8], 1.24 µM in [9] and 1.76 µM in assay [10]. The TGI was 2.59 µM in assay [1]; 37 µM in assay [2]; 19 µM in assay [3]; 3.15 µM in assay [4]; 3.88 µM in assay [5]; 4.41 µM in assay [6]. For the same compound, the TGI in assay [7] worked out at 2.82 µM; in assay [8], 4.05 µM; in assay [9] it was 2.53 µM; in assay [10], 4.31 µM.
For `COc1cc2nnn3c4ncccc4c(N=O)c3c2cc1OC`, the GI50 in [1] is 0.89 µM; in assay [2], 0.91 µM; in assay [3], 6.96 µM; in assay [4], 722 nM; in assay [5], 4.87 µM; in assay [6], 9.1 µM. For the same compound, the GI50 is 0.258 µM in assay [7], 3.55 µM in assay [8], 0.777 µM in [9] and 5.83 µM in [10]. The TGI is greater than 20.8 µM in [1]; greater than 33.6 µM in assay [2]; 41.7 µM in [3]; greater than 100 µM in [4]; 24.5 µM in [5]; greater than 100 µM in assay [6]. In addition, the TGI in assay [7] was 2.15 µM; in assay [8] it was 32.7 µM; in assay [9] it was greater than 39.9 µM; in assay [10], greater than 64.6 µM.
